Data set [1] deals with Ba/F3 (KRAS-G12C-R68S) cells (Homo sapiens, UniProt P01116, G12C/R68S, cells depend on it). Kind of data set: Proliferation experiment of Ba/F3 (KRAS-G12C-R68S) cells. Format: cell-based. The conditions noted are these: 72 hours, Cell Titer-Glo, read-out: Test Example 5 IC50. The method, then: Engineered cell strain Ba/F3 (KRAS-G12C-R68S) was a cell strain constructed by the inventors according to the methods described in Warmuth M. et al, Curr Opin Oncol. […] The cells were grown at 37° C. in a humidified incubator with 5% CO2.
Ba/F3 (KRAS-G12C-R68S) cells, sequence (P01116 whole entry G12C/R68S): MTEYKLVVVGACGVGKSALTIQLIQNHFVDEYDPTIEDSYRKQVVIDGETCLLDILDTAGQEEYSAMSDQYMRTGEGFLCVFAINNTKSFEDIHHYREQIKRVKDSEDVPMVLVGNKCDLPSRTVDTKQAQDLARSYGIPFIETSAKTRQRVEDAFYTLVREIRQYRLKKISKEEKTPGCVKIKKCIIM
(§1) According to the solution described in Cell Titer-Glo Luminescent cell Viability Assay (Promega catalog number #G7570) of Promega Corporation, the number of living cells in the culture was detected. 90 μL of cells (3,000 cells/well) were cultured in a growth medium in a Corning black transparent bottom 96-well plate and were cultured overnight in a 5% CO2 humidified incubator at 37° C. The compound diluted serially in 100% DMSO was added to the cells by a pipette, and the cells were cultured for another 72 hours. 100 μL of the well-mixed Cell Titer-Glo reagent was added to the cells in the 96-well culture plate to lyse the cells and gently mixed. Subsequently, […] was detected on an Envision microplate detector, and the data of each compound was obtained. Finally, the data was input into a suitable software package (such as Prism) for curve fitting analysis.
(In ATP-based viability assays light output follows the ATP content of the culture.)

In data set [2] the target is Ba/F3 (KRAS-G12C-Q99L) cells (Homo sapiens, UniProt P01116, G12C/Q99L, cells depend on it). Put plainly: Proliferation experiment of Ba/F3 (KRAS-G12C-Q99L) cells. The class given is cell-based. The conditions noted are these: 72 hours, Cell Titer-Glo, read-out: Test Example 6 IC50. The method, then: Engineered cell strain Ba/F3 (KRAS-G12C-Q99L) was a cell strain constructed by the inventors according to the methods described in Warmuth M. et al, Curr Opin Oncol. […] The cells were grown at 37° C. in a humidified incubator with 5% CO2.
Ba/F3 (KRAS-G12C-Q99L) cells, sequence (P01116 whole entry G12C/Q99L): as the sequence (P01116 whole entry G12C/R68S) above, with S68R, Q99L counted along it
as §1

In data set [3] the target is Ba/F3 (KRAS-G12C-H95Q) cells (Homo sapiens, UniProt P01116, G12C/H95Q, cells depend on it). Put plainly: Proliferation experiment of Ba/F3 (KRAS-G12C-H95Q) cells. Conditions: 72 hours, Cell Titer-Glo, read-out: Test Example 4 IC50. Format: cell-based. How it is done:
Engineered cell strain Ba/F3 (KRAS-G12C-H95Q) was a cell strain constructed by the inventors according to the methods described in Warmuth M. et al, Curr Opin Oncol. […] The cells were grown at 37° C. in a humidified incubator with […].
as §1

Data set [4] addresses Ba/F3 (KRAS-G12C-Y96C) cells (Homo sapiens, UniProt P01116, G12C/Y96C, cells depend on it). Put plainly: Proliferation experiment of Ba/F3 (KRAS-G12C-Y96C) cells. The class given is cell-based. Conditions: 72 hours, Cell Titer-Glo, read-out: Test Example 3 IC50. How it is done:
Engineered cell strain Ba/F3 (KRAS-G12C-Y96C) was a cell strain constructed by the inventors according to the methods described in Warmuth M. et al, Curr Opin Oncol. […] The cells were grown at 37° C. in a humidified incubator with […].
as §1, with “[…]” for “5%”

Data set [5] can be described thus: In vitro human liver microsome stability experiment. Format: in vitro ADME. Conditions: human liver microsomes; for half-life / microsomal CLint: 1 mg/mL microsome protein, NADPH, 37° C.; for microsomal CLint: read-out: CLint(mic); for CLint scaled: scaled to liver. The method, then:
Eight 96-well incubation plates were prepared, named [NT], Blank60, and NCF60, respectively. […] No compound to be tested or control compound was added to the Blank60 plate and samples were taken after 60 minutes of incubation. The NCF60 plate, in which a potassium phosphate buffer was used instead of an NADPH regeneration system solution (Sigma, N0505), was incubated for 60 minutes. […] Only the working solution of microsomes was added to the Blank60 plate, and the incubation plates Blank60, T5, T15, T30, T45, and T60 except TO and NCF60 were then placed in a water bath at 37° C. for pre-incubation for about 10 minutes. To the TO plate sample, 600 μL of a stop solution (acetonitrile:methanol (95:5, v/v) solution containing 100 ng/mL tolbutamide (Sigma, T0891)) was added first, and then an NADPH regeneration system working solution was added. 98 μL of a potassium phosphate buffer was added to each well of the NCF60 plate and incubated for 60 minutes. After the pre-incubation in the incubation plates Blank60, T5, T15, T30, T45, and T60 was complete, 98 μL of the NADPH regeneration system working solution was added to each sample well to initiate the reaction. After an appropriate incubation time (such as 5, 15, 30, 45, and 60 minutes), 600 μL of the stop solution was added to each sample well and control sample well in the Blank60, […] the reaction. All the sample plates were shaken evenly and centrifuged at 3220×g for 20 minutes. 200 μL of each test sample supernatant was taken and diluted into 200 μL of an aqueous solution containing 0.3% formic acid for LC-MS/MS analysis, and 100 μL of the control sample supernatant was taken and diluted into 300 μL of pure water for LC-MS/MS analysis. Calculations were carried out according to the following formulas: […]
In general terms: Liver microsomes are vesicles of endoplasmic reticulum, rich in cytochrome P450 enzymes.

Data set [6] concerns NCI-H23 cells (KRAS G12C mutant cell line). Put plainly: Proliferation experiment of NCI-H23 cells (Cell Titer-Glo). The class given is cell-based. The conditions noted are these: Homo sapiens, 72 hours, read-out: Test Example 2 IC50. How it is done:
Human lung cancer cell line NCI-H23 (ATCC, CRL-5800) was a KRAS G12C mutant cell line.
as §1, with “(8,000” for “(3,000”

In data set [7] the test system is NCI-H358 cells (KRAS G12C mutant cell line). Kind of data set: Proliferation experiment of NCI-H358 cells (Cell Titer-Glo). The conditions noted are these: Homo sapiens, 72 hours, read-out: Test Example 1 IC50. Format: cell-based. How it is done: as §1, with “(8,000” for “(3,000”

The term half-life denotes the time in which the quantity being followed falls by half. Higher therefore signals slow loss. As a reminder, the CLint scaled is a measure of how fast metabolising enzymes remove a compound, apart from limits set by blood flow. Read a high CLint scaled as rapid turnover. A word on the IC50: it is the concentration at which inhibition is half-maximal.

Ba/F3 (KRAS-G12C-Y96C) cells, sequence (P01116 whole entry G12C/Y96C): as the sequence (P01116 whole entry G12C/R68S) above, with S68R, Y96C counted along it
Ba/F3 (KRAS-G12C-H95Q) cells, sequence (P01116 whole entry G12C/H95Q): as the sequence (P01116 whole entry G12C/R68S) above, with S68R, H95Q counted along it

Regarding `C=C(F)C(=O)N1CCN(c2nc(OC[C@@]34CCCN3C[C@H](F)C4)nc3c(F)c(-c4cc(O)cc5cccc(Cl)c45)ccc23)C[C@@H]1CC#N` [Compound 2], the GI50 was determined as 93.9 nM in data set [1], 130 nM in data set [2], 70.1 nM in data set [3] and 18.9 nM in data set [4]. In addition, the half-life in data set [5] was 18.8 min. Also, the microsomal CLint in data set [5] was 73.7 µL/min/mg. The compound also yielded an intrinsic metabolic clearance (CLint scaled) in data set [5] of 66.3 mL/min/kg. Besides, the IC50 in data set [6] amounted to 0.65 nM; in data set [7] it was 0.22 nM.
As to `C=C(F)C(=O)N1CCN(c2nc(OC[C@@]34CCCN3C[C@H](F)C4)nc3c(F)c(-c4cccc5cccc(Cl)c45)ccc23)C[C@@H]1CC#N` [Compound 5], the GI50 stood at 929 nM in data set [1], 589 nM in data set [2], 709 nM in data set [3] and 473 nM in data set [4]. Besides, the IC50 worked out at 1.27 nM in data set [6] and 1.58 nM in data set [7].
Turning to `C=C(F)C(=O)N1CCN(c2nc(OCC34CCCN3CCC4)nc3c(F)c(-c4cccc5cccc(Cl)c45)c(F)cc23)C[C@@H]1CC#N` [Compound 6A, 2-((2S)-4-(7-(8-chloronaphth-1-yl)-6,8-difluoro-2-((tetrahydro-1H-pyrrolizin-7a(5H)-yl)methoxy)quinazolin-4-yl)-1-(2-fluoroacryloyl)piperazin-2-yl)acetonitrile], the GI50 stood at 863 nM in data set [1], 779 nM in data set [2], 689 nM in data set [3] and 525 nM in data set [4]. Further, the IC50 amounted to 1.44 nM in data set [6] and 1.83 nM in data set [7].
Regarding `C=C(F)C(=O)N1CCN(c2nc(OCC34CCCN3CCC4)nc3c(F)c(-c4cccc5cccc(Cl)c45)ccc23)C[C@@H]1CC#N` [Compound 17, (S)-2-(4-(7-(8-chloronaphth-1-yl)-8-fluoro-2-((tetrahydro-1H-pyrrolizin-7a(5H)-yl)methoxy)quinazolin-4-yl)-1-(2-fluoroacryloyl)piperazin-2-yl)acetonitrile], the 50% inhibitory concentration (IC50) in data set [6] came out at 0.53 nM; in data set [7], 0.6 nM.
Turning to `C#Cc1c(F)ccc2cccc(-c3c(F)cc4c(N5CCN(C(=O)C(=C)F)[C@@H](CC#N)C5)nc(OCC56CCCN5CCC6)nc4c3F)c12` [Compound 19B, 2-((2S)-4-(7-(8-ethynyl-7-fluoronaphth-1-yl)-6,8-difluoro-2-((tetrahydro-1H-pyrrolizin-7a(5H)-yl)methoxy)quinazolin-4-yl)-1-(2-fluoroacryloyl)piperazin-2-yl)acetonitrile], in data set [5], the half-life was 24.5 min, the microsomal CLint was 56.5 µL/min/mg and the CLint scaled came out at 50.9 mL/min/kg. The IC50 in data set [6] is 1.71 nM. Besides, the IC50 in data set [7] amounted to 0.47 nM.
`C#Cc1ccc2cccc(-c3c(F)cc4c(N5CCN(C(=O)C(=C)F)[C@@H](CC#N)C5)nc(OCC56CCCN5CCC6)nc4c3F)c2c1` [Compound 25, 2-((2S)-4-(7-(7-ethynylnaphth-1-yl)-6,8-difluoro-2-((tetrahydro-1H-pyrrolizin-7a(5H)-yl)methoxy)quinazolin-4-yl)-1-(2-fluoroacryloyl)piperazin-2-yl)acetonitrile]: the GI50 in data set [1], in data set [2], in data set [3] and in data set [4] was greater than 5000 nM in each case.
For `C#Cc1cc(-c2c(F)cc3c(N4CCN(C(=O)C(=C)F)[C@@H](CC#N)C4)nc(OCC45CCCN4CCC5)nc3c2F)c2ccccc2c1` [Compound 26, 2-((2S)-4-(7-(3-ethynylnaphth-1-yl)-6,8-difluoro-2-((tetrahydro-1H-pyrrolizin-7a(5H)-yl)methoxy)quinazolin-4-yl)-1-(2-fluoroacryloyl)piperazin-2-yl)acetonitrile], the GI50 in data set [1], in data set [2], in data set [3] and in data set [4] was greater than 5000 nM throughout.
With `C#Cc1cccc2c(-c3c(F)cc4c(N5CCN(C(=O)C(=C)F)[C@@H](CC#N)C5)nc(OCC56CCCN5CCC6)nc4c3F)cccc12` [Compound 27, 2-((2S)-4-(7-(5-ethynylnaphth-1-yl)-6,8-difluoro-2-((tetrahydro-1H-pyrrolizin-7a(5H)-yl)methoxy)quinazolin-4-yl)-1-(2-fluoroacryloyl)piperazin-2-yl)acetonitrile], the GI50 in data set [1], in data set [2], in data set [3] and in data set [4] was greater than 5000 nM each time.
As for `C=C(F)C(=O)N1CCN(c2nc(OCC34CCCN3CCC4)nc3c(F)c(-c4cc(O)cc5c(Cl)cccc45)ccc23)C[C@@H]1CC#N` [Compound 28, (S)-2-(4-(7-(5-chloro-3-hydroxynaphth-1-yl)-8-fluoro-2-((tetrahydro-1H-pyrrolizin-7a(5H)-yl)methoxy)quinazolin-4-yl)-1-(2-fluoroacryloyl)piperazin-2-yl)acetonitrile], the GI50 in data set [1], in data set [2], in data set [3] and in data set [4] was greater than 5000 nM throughout.
Turning to `C=C(F)C(=O)N1CCN(c2nc(OCC34CCCN3CCC4)nc3c(F)c(-c4cc(O)cc5ccc(Cl)cc45)ccc23)C[C@@H]1CC#N` [Compound 29, (S)-2-(4-(7-(7-chloro-3-hydroxynaphth-1-yl)-8-fluoro-2-((tetrahydro-1H-pyrrolizin-7a(5H)-yl)methoxy)quinazolin-4-yl)-1-(2-fluoroacryloyl)piperazin-2-yl)acetonitrile], the GI50 in data set [1], in data set [2], in data set [3] and in data set [4] was greater than 5000 nM throughout.

The record behind these values is patent US20250154156A1, “QUINAZOLINE DERIVATIVE AS KRAS G12C MUTATION INHIBITOR” (Shenzhen Forward Pharmaceuticals Co., Limited, priority 2022, published 2025).
